According to patent publication US11820822B2, “Methods for sensitizing cancer cells to T cell-mediated killing by modulating molecular pathways” (DANA-FARBER CANCER INSTITUTE, INC., priority 2017, dated 2023):

Experiments:
[1] = system: B16F10-Cas9 cells co-cultured with Pmel-1 T cells; assay: Genome-scale CRISPR-Cas9 screen, selection with Pmel-1 T cells; type: cell-based, mouse; conditions: Table 3; B16F10-Cas9 cells pre-treated with IFNγ, co-cultured with Pmel-1 T cells 1:1 for three days; negative = depleted, positive = enriched
[2] = system: B16F10-Cas9 cells pulsed with SIINFEKL peptide, co-cultured with OT-I T cells; assay: Genome-scale CRISPR-Cas9 screen, selection with OT-I T cells; type: cell-based, mouse; conditions: Table 3; B16F10-Cas9 cells pulsed with SIINFEKL, co-cultured with OT-I T cells 1:1 for one day; negative = depleted, positive = enriched

| Sequence | Pmel+ (sgRNA Log(2) fold change, Pmel-1 selection versus control T cells) [1] | OT1 (sgRNA Log(2) fold change, OT-I selection versus control T cells) [2] |
| --- | --- | --- |
| TACTGATCATAAACGAACCA (chemistry not fully specified) | 0.25 | -3.34 |
| TAGCCGACAGAGATGTACCG (chemistry not fully specified) | 3.52 | 0.05 |
| TATACCAATACGCAAATACC (chemistry not fully specified) | 4.34 | 4.07 |
| TATGGAGCGGTGTATGCCCG (chemistry not fully specified) | 1.27 | -3.33 |
| TATGTGGAGCATAACCGGAG (chemistry not fully specified) | 3.80 | 2.95 |
| TCACTGCGTACGCGTCACTG (chemistry not fully specified) | 0.81 | -3.44 |
| TCAGCAACTGAGAACTCACT (chemistry not fully specified) | -2.37 | -1.37 |
| TCAGGATGCTGTGATAAGCG (chemistry not fully specified) | 2.98 | -0.67 |
| TCATAGCCAGAGCATACTCT (chemistry not fully specified) | -1.33 | -3.24 |
| TCATCTTCGGAGGGCTCAAG (chemistry not fully specified) | 2.75 | 0.18 |
| TCCCTTTGATGTGTTCCACG (chemistry not fully specified) | 4.23 | 3.40 |
| TCCGAACCGAATCATCACTG (chemistry not fully specified) | 10.23 | 3.59 |
| TCGGCTTCCCATTCTCCGGT (chemistry not fully specified) | 4.33 | 5.48 |
| TCTGTTGAAAGAGCGCCAAA (chemistry not fully specified) | -3.36 | -0.71 |
| TCTTAAAGCTACGGTGTAAG (chemistry not fully specified) | -0.87 | -2.41 |
| TCTTCAGGAGAGAATACCAT (chemistry not fully specified) | 3.86 | 3.69 |
| TCTTGAAAACTATAGTACTC (chemistry not fully specified) | -2.12 | -2.40 |
| TGAAGCTAATGACCATGAGC (chemistry not fully specified) | -0.59 | -2.77 |
| TGAATAAATCCATCAGACAG (chemistry not fully specified) | 9.92 | 2.46 |
| TGAGTATACTTGAATTTGAG (chemistry not fully specified) | 3.55 | 5.51 |
| TGATAATAGATAAACGACCA (chemistry not fully specified) | 0.05 | -3.36 |
| TGATGAGCAGATTCTAACTT (chemistry not fully specified) | 5.03 | 3.81 |
| TGATGCTGGCCTCTATACTG (chemistry not fully specified) | -1.90 | -3.28 |
| TGCACAGCATACACTAGTGA (chemistry not fully specified) | -1.65 | -2.96 |

| Sequence | Pmel+ (sgRNA Log(2) fold change, Pmel-1 selection versus control T cells) [1] | OT1 (sgRNA Log(2) fold change, OT-I selection versus control T cells) [2] |
| --- | --- | --- |
| TGGAACCTCCTGATCCGCTG (chemistry not fully specified) | 0.12 | -4.60 |
| TGGAATTATGGTCAAAGTAG (chemistry not fully specified) | 0.96 | -2.20 |
| TGGACATGAGCCATATGTTG (chemistry not fully specified) | 3.35 | -0.14 |
| TGGACCTCCGAAAAACATCT (chemistry not fully specified) | 5.37 | 3.78 |
| TGGTCTAGTTACCATGCAAG (chemistry not fully specified) | -0.83 | -3.50 |
| TGTAATGTAGGTCTCCCAGG (chemistry not fully specified) | -1.35 | -3.77 |
| TGTGAATGCTATGACGAGCT (chemistry not fully specified) | 0.02 | -2.59 |
| TGTGATGTTAGATAAACAGA (chemistry not fully specified) | 7.91 | 1.50 |
| TGTTCTAGGAAACTACATGG (chemistry not fully specified) | 1.10 | -2.76 |
| TGTTTGCAGTTAGCAAAACG (chemistry not fully specified) | 0.00 | -2.49 |
| TTAATGACGAGCTCGTGGAG (chemistry not fully specified) | 8.60 | 2.25 |
| TTACACGACCCGAATAGCGA (chemistry not fully specified) | 3.22 | -2.14 |
| TTACCCCCTACTACACTGGA (chemistry not fully specified) | -2.24 | -2.56 |
| TTACTGAGGCTCGATTGGGA (chemistry not fully specified) | 0.41 | -3.59 |
| TTAGTTCTGGCAAAGCGCCG (chemistry not fully specified) | -2.54 | -2.23 |
| TTATTGAGTCAAGAAAAGGT (chemistry not fully specified) | -1.87 | -3.67 |
| TTCAAAGCAAGGCTCTACTG (chemistry not fully specified) | -0.93 | -2.28 |
| TTCAGATTCAGACATCAGAT (chemistry not fully specified) | 0.00 | -2.07 |
| TTCAGGGTGAAATACGAGGA (chemistry not fully specified) | 5.32 | 3.43 |
| TTCGGACAAATACGACGACG (chemistry not fully specified) | 0.00 | -2.32 |
| TTGTCCGCGTTACTTCCCTG (chemistry not fully specified) | 0.07 | -2.50 |
| TTGTGAGGCAAACTGAACGA (chemistry not fully specified) | -0.86 | -2.11 |
| TTGTGCCTAAACAAAAAACA (chemistry not fully specified) | 0.85 | -2.52 |
| TTTACAATCCTCCAAAGTCG (chemistry not fully specified) | -0.68 | -3.13 |
